Measurements published in PubChem BioAssay AID1259407 (Chemical Carcinogenesis Research Information System (CCRIS), 2018).
The source made the active and inactive calls. The rule behind the calls is not given here.

Test system: CCRIS mutagenicity, Ames/micronucleus/aberration tests
Experiment: CCRIS mutagenicity studies
[1] = Test System: AMES SALMONELLA TYPHIMURIUM, Strain/Indicator: TA1535, Metabolic Activation: NONE, Method: STANDARD PLATE
[2] = Test System: E. COLI, Strain/Indicator: WP2, Metabolic Activation: NONE, Method: STANDARD PLATE

In the case of `O=S(O)O`, the mutagenic call (Test System: AMES SALMONELLA TYPHIMURIUM, Strain/Indicator: GW19, Metabolic Activation: NONE, Method: PREINCUBATION (30-90 MIN)) is reported as “inactive; negative”, the mutagenic call (Test System: AMES SALMONELLA TYPHIMURIUM, Strain/Indicator: GW19, Metabolic Activation: NONE, Method: STANDARD PLATE) is reported as “inactive; negative” and the mutagenic call (Test System: AMES SALMONELLA TYPHIMURIUM, Strain/Indicator: HISG46, Metabolic Activation: NONE, Method: PREINCUBATION) is reported as “active; positive”. The mutagenic call (Test System: AMES SALMONELLA TYPHIMURIUM, Strain/Indicator: HISG46, Metabolic Activation: NONE, Method: PREINCUBATION (30-120 MIN)) was “active; positive”, the mutagenic call (Test System: AMES SALMONELLA TYPHIMURIUM, Strain/Indicator: HISG46, Metabolic Activation: NONE, Method: STANDARD PLATE) was “active; positive” and the mutagenic call (Test System: AMES SALMONELLA TYPHIMURIUM, Strain/Indicator: TA92, Metabolic Activation: NONE, Method: PREINCUBATION (30-90 MIN)) was “active; positive”. The mutagenic call (Test System: AMES SALMONELLA TYPHIMURIUM, Strain/Indicator: TA92, Metabolic Activation: NONE, Method: STANDARD PLATE) was “inactive; negative”, the mutagenic call (Test System: AMES SALMONELLA TYPHIMURIUM, Strain/Indicator: TA97, Metabolic Activation: NONE, Method: PREINCUBATION) was “inactive; negative” and the mutagenic call (Test System: AMES SALMONELLA TYPHIMURIUM, Strain/Indicator: TA97, Metabolic Activation: RAT, LIVER, S-9, AROCLOR 1254, Method: PREINCUBATION) was “inactive; negative”. For the same molecule, the mutagenic call (Test System: AMES SALMONELLA TYPHIMURIUM, Strain/Indicator: TA98, Metabolic Activation: NONE, Method: STANDARD PLATE) was “inactive; negative”, the mutagenic call (Test System: AMES SALMONELLA TYPHIMURIUM, Strain/Indicator: TA98, Metabolic Activation: RAT, LIVER, S-9, AROCLOR 1254, Method: STANDARD PLATE) was “inactive; negative” and the mutagenic call (Test System: AMES SALMONELLA TYPHIMURIUM, Strain/Indicator: TA100, Metabolic Activation: NONE, Method: STANDARD PLATE) was “inactive; negative”. The mutagenic call (Test System: AMES SALMONELLA TYPHIMURIUM, Strain/Indicator: TA100, Metabolic Activation: RAT, LIVER, S-9, AROCLOR 1254, Method: STANDARD PLATE) was “inactive; negative”, the mutagenic call (Test System: AMES SALMONELLA TYPHIMURIUM, Strain/Indicator: TA102, Metabolic Activation: NONE, Method: PREINCUBATION) was “inactive; negative” and the mutagenic call (Test System: AMES SALMONELLA TYPHIMURIUM, Strain/Indicator: TA102, Metabolic Activation: RAT, LIVER, S-9, AROCLOR 1254, Method: PREINCUBATION) was “inactive; negative”. The mutagenic call [1] was “inactive; negative”, the mutagenic call (Test System: AMES SALMONELLA TYPHIMURIUM, Strain/Indicator: TA1535, Metabolic Activation: RAT, LIVER, S-9, AROCLOR 1254, Method: STANDARD PLATE) was “inactive; negative” and the mutagenic call (Test System: AMES SALMONELLA TYPHIMURIUM, Strain/Indicator: TA1537, Metabolic Activation: NONE, Method: STANDARD PLATE) was “inactive; negative”. The mutagenic call (Test System: AMES SALMONELLA TYPHIMURIUM, Strain/Indicator: TA1537, Metabolic Activation: RAT, LIVER, S-9, AROCLOR 1254, Method: STANDARD PLATE) was “inactive; negative”, the mutagenic call (Test System: AMES SALMONELLA TYPHIMURIUM, Strain/Indicator: TA1538, Metabolic Activation: NONE, Method: STANDARD PLATE) was “inactive; negative” and the mutagenic call (Test System: AMES SALMONELLA TYPHIMURIUM, Strain/Indicator: TA1538, Metabolic Activation: RAT, LIVER, S-9, AROCLOR 1254, Method: STANDARD PLATE) was “inactive; negative”. For the same molecule, the mutagenic call (Test System: AMES SALMONELLA TYPHIMURIUM, Strain/Indicator: TA1950, Metabolic Activation: NONE, Method: PREINCUBATION (30-90 MIN)) was “active; positive”, the mutagenic call (Test System: AMES SALMONELLA TYPHIMURIUM, Strain/Indicator: TA1950, Metabolic Activation: NONE, Method: STANDARD PLATE) was “active; positive” and the mutagenic call (Test System: AMES SALMONELLA TYPHIMURIUM, Strain/Indicator: TA2410, Metabolic Activation: NONE, Method: PREINCUBATION (30-90 MIN)) was “active; positive”. The mutagenic call (Test System: AMES SALMONELLA TYPHIMURIUM, Strain/Indicator: TA2410, Metabolic Activation: NONE, Method: STANDARD PLATE) was “inactive; negative”, the mutagenic call (Test System: AMES SALMONELLA TYPHIMURIUM, Strain/Indicator: TS24, Metabolic Activation: NONE, Method: PREINCUBATION (30-90 MIN)) was “active; positive” and the mutagenic call (Test System: AMES SALMONELLA TYPHIMURIUM, Strain/Indicator: TS24, Metabolic Activation: NONE, Method: STANDARD PLATE) was “active; positive”. For the same molecule, the mutagenic call [2] was “inactive; negative” and the mutagenic call (Test System: E. COLI, Strain/Indicator: WP2, Metabolic Activation: RAT, LIVER, S-9, AROCLOR 1254, Method: STANDARD PLATE) was “inactive; negative”.
With `COc1ccc2cc1Oc1ccc(cc1)C[C@H]1c3c(cc4c(c3Oc3cc5c(cc3OC)CCN(C)[C@@H]5C2)OCO4)CCN1C` the mutagenic call (Test System: AMES SALMONELLA TYPHIMURIUM, Strain/Indicator: TA98, Metabolic Activation: NONE, Method: PREINCUBATION) was “inactive; negative”, the mutagenic call (Test System: AMES SALMONELLA TYPHIMURIUM, Strain/Indicator: TA98, Metabolic Activation: RAT LIVER S-9, PHENOBARBITAL, 5,6-BENZOFLAVONE, Method: PREINCUBATION) was “active; positive” and the mutagenic call (Test System: AMES SALMONELLA TYPHIMURIUM, Strain/Indicator: TA100, Metabolic Activation: NONE, Method: PREINCUBATION) was “inactive; negative”. For the same molecule, the mutagenic call (Test System: AMES SALMONELLA TYPHIMURIUM, Strain/Indicator: TA100, Metabolic Activation: RAT LIVER S-9, PHENOBARBITAL, 5,6-BENZOFLAVONE, Method: PREINCUBATION) was “active; positive”, the mutagenic call (Test System: AMES SALMONELLA TYPHIMURIUM, Strain/Indicator: TA1535, Metabolic Activation: NONE, Method: PREINCUBATION) was “inactive; negative” and the mutagenic call (Test System: AMES SALMONELLA TYPHIMURIUM, Strain/Indicator: TA1535, Metabolic Activation: RAT LIVER S-9, PHENOBARBITAL, 5,6-BENZOFLAVONE, Method: PREINCUBATION) was “active; positive”. The mutagenic call (Test System: AMES SALMONELLA TYPHIMURIUM, Strain/Indicator: TA1537, Metabolic Activation: NONE, Method: PREINCUBATION) was “inactive; negative”, the mutagenic call (Test System: AMES SALMONELLA TYPHIMURIUM, Strain/Indicator: TA1537, Metabolic Activation: RAT LIVER S-9, PHENOBARBITAL, 5,6-BENZOFLAVONE, Method: PREINCUBATION) was “active; positive” and the mutagenic call (Test System: ESCHERICHIA COLI, Strain/Indicator: WP2 UVR A, Metabolic Activation: NONE, Method: PREINCUBATION) was “inactive; negative”. The mutagenic call (Test System: ESCHERICHIA COLI, Strain/Indicator: WP2 UVR A, Metabolic Activation: RAT LIVER S-9, PHENOBARBITAL, 5,6-BENZOFLAVONE, Method: PREINCUBATION) was “inactive; negative” and the mutagenic call (Test System: UDS RAT HEPATOCYTES, Strain/Indicator: THYMIDINE INCORPORATION, Metabolic Activation: NONE, Method: AUTORADIOGRAPHY) was “active; positive”.
`N=NCO` was tested, and the mutagenic call [1] was “active; positive”, the mutagenic call [2] was “active; positive” and the mutagenic call (Test System: E. COLI, Strain/Indicator: WP2 UVRA, Metabolic Activation: NONE, Method: STANDARD PLATE) was “active; positive”.
